# Reference: US6960575B2, “Thiazine derivatives” (Santen Pharmaceutical Co., Ltd., priority 1999, dated 2005)
# pIC50: −log10 of the molar value.
# Biological target: T1, chymase extracted from a dog cardiac tissue (Canis lupus familiaris, UniProt P21842)
# T1 construct: The obtained supernatant is used as a chymase enzyme solution; from tissue; host or cells: beagle heart, left ventricle (2.0 M KCl / 1% Triton X-100 extract)
# T1 sequence (P21842 22-249): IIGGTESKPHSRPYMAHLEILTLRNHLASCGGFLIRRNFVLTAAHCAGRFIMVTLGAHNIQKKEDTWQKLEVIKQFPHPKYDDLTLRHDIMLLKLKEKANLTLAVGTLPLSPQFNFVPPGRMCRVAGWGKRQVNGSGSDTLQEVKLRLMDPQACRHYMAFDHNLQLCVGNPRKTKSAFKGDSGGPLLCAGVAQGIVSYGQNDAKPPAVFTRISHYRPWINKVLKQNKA
# Assay: Chymase inhibitory effect (liberation of His-Leu from angiotensin I, fluorescence)
# Assay type: biochemical
# Details: substrate angiotensin I; 37° C., one hour; pH 8 reaction buffer; read-out: IC50 (concentration required to inhibit the chymase enzymatic activity by 50%)
# Source text: Chymase (enzyme) causes angiotensin I (substrate) to liberate a dipeptide (His-Leu) by the enzyme reaction with the substrate. It was reported that an enzymatic activity of chymase can be measured by measuring fluorescence intensity of the resulting peptide (Biochem. Biophys. Res. Com., 149 (3) 1186 (1987)). Since drugs having chymase inhibitory activities suppress this liberation of the dipeptide, the chymase inhibitory activities of the drugs can be measured by measuring fluorescence intensity. In the present pharmacological test, chymase inhibitory effects of the present compounds were studied by using chymase extracted from a dog cardiac tissue (J. Biol. Chem., 265 (36), 22348 (1990)).
# • 1. A beagle is killed by drawing blood under Nembutal anesthesia, a heart is enucleated, and left ventricle is separated. • 2. This left ventricle is finely minced, and the tissue weight is measured. • 3. A 0.02 M Tris-HCl buffer (pH 7.4) is added to the tissue in an amount of 10 times by volume the tissue weight. The obtained mixture is homogenized at 8,000 rpm for 20 seconds and then centrifuged at 4° C. and 21,000 rpm for 30 minutes, and the resulting supernatant is discarded. • 4. The same procedure as the above 3 is repeated twice for the residue. Then, a 0.02 M Tris-HCl buffer (pH 7.4) containing 1% Triton X-100 and 0.01 M potassium chloride is added to the residue in an amount of 10 times by volume the amount of the residue. The obtained mixture is homogenized at 8,000 rpm for 20 seconds, then incubated at 4° C. for one hour and centrifuged at 21,000 rpm for 30 minutes, and the supernatant is discarded. • 5. A 0.02 M Tris-HCl buffer (pH 7.4) containing 1% Triton X-100 and 0.5 M potassium chloride is added to the residue in an amount of 10 times by volume the amount of the residue. The obtained mixture is homogenized at 8,000 rpm for 20 seconds, then incubated at 4° C. for one hour and centrifuged at 21,000 rpm for 30 minutes, and the supernatant is discarded. • 6. A 0.02 M Tris-HCl buffer (pH 7.4) containing 1% Triton X-100 and 2.0 M potassium chloride is added to the residue in an amount of 10 times the amount of the residue. The obtained mixture is homogenized at 8,000 rpm for 20 seconds, then incubated at 4° C. for one hour and centrifuged at 21,000 rpm for 30 minutes. The obtained supernatant is used as a chymase enzyme solution. [2. Preparation of Reaction Buffer]
# Tris-HCl and disodium ethylenediaminetetraacetate are dissolved in water so that their concentrations are 92.3 mM and 12.0 mM respectively to prepare a reaction buffer adjusted to pH 8.
# Angiotensin I is dissolved in water to prepare a 1.54 mM substrate solution.
# A test compound is dissolved in dimethyl sulfoxide to prepare 3.0×10^−3M, 3.0×10^−4 M, 3.0×10^−5 M and 3.0×10^−6 M test compound solutions.
# • 1. The reaction buffer (32.5 μl), the substrate solution (75.0 μl), the chymase enzyme solution (37.5 μl) and the test compound solution (5 μl) are mixed. • 2. The obtained mixture is incubated at 37° C. for one hour. • 3. To the mixture is added 15% trichloroacetic acid (225 μl), and the whole is centrifuged at 4° C. and 14,000 rpm for five minutes. • 4. The supernatant is taken out. A 1% orthophthalaldehyde/methanol solution (165 μl) is added to 300 μl of this supernatant, and the whole is stirred and allowed to stand at room temperature for 10 minutes. • 5. 1.5 M Hydrochloric acid (300 μl) is added to the resulting mixture, and the whole is stirred and centrifuged at 4° C. and 14,000 rpm for two minutes. • 6. The supernatant is taken out and irradiated with light having a wavelength of 340 nm, and fluorescence intensity is measured at a wavelength of 455 nm.
# The blank of this test is defined as follows. […]
row,pIC50,SMILES
1,6.68,"CC(C)OC(=O)C(=O)[C@H](Cc1ccccc1)NC(=O)CN1C(=O)C(C(C)C)N(C(=O)c2cccnc2)C=C1c1ccccc1 (mixture of isomers) [Compound No. 2-31, Isopropyl (3S)-3-{(3RS)-3-isopropyl-2-oxo-6-phenyl-4-(3-pyridylcarbonyl)-1,2,3,4-tetrahydropyrazin-1-yl}methylcarbonylamino-2-oxo-4-phenylbutyrate]"
2,6.44,"CC(C)OC(=O)C(=O)[C@H](Cc1ccccc1)NC(=O)CN1C(=O)C(C(C)C)N(C(=O)c2ccncc2)C=C1c1ccccc1 (mixture of isomers) [Compound No. 2-32, Isopropyl (3S)-3-{(3RS)-3-isopropyl-2-oxo-6-phenyl-4-(4-pyridylcarbonyl)-1,2,3,4-tetrahydropyrazin-1-yl}methylcarbonylamino-2-oxo-4-phenylbutyrate]"
3,6.60,"CC(C)OC(=O)C(=O)[C@H](Cc1ccccc1)NC(=O)CN1C(=O)C(C(C)C)N(S(=O)(=O)c2ccccc2)C=C1c1ccccc1 (mixture of isomers) [Compound No. 2-34, Isopropyl (3S)-3-{(3RS)-4-benzenesulfonyl-3-isopropyl-2-oxo-6-phenyl-1,2,3,4-tetrahydropyrazin-1-yl}methylcarbonylamino-2-oxo-4-phenylbutyrate]"
4,5.42,"CC(=O)N1C=C(c2ccccc2)N(CC(=O)N[C@@H](Cc2ccccc2)C(=O)c2nc3ccccc3s2)C(=O)C1C(C)C (mixture of isomers) [Compound No. 2-46, (2S)-2-{(3RS)-4-Acetyl-3-isopropyl-2-oxo-6-phenyl-1,2,3,4-tetrahydropyrazin-1-yl}methylcarbonylamino-1-(1,3-benzothiazol-2-yl)-1-oxo-3-phenylpropane]"
5,6.30,"CC(=O)N1C=C(c2ccccc2)N(CC(=O)N[C@@H](Cc2ccccc2)C(=O)C2=NCCO2)C(=O)C1C(C)C (mixture of isomers) [Compound No. 2-47, (2S)-2-{(3RS)-4-Acetyl-3-isopropyl-2-oxo-6-phenyl-1,2,3,4-tetrahydropyrazin-1-yl}methylcarbonylamino-1-(4,5-dihydro-1,3-oxazol-2-yl)-1-oxo-3-phenylpropane]"
6,5.92,"CC(=O)N1C=C(c2ccccc2)N(CC(=O)N[C@@H](Cc2ccccc2)C(=O)C2=NCCS2)C(=O)C1C(C)C (mixture of isomers) [Compound No. 2-48, (2S)-2-{(3RS)-4-Acetyl-3-isopropyl-2-oxo-6-phenyl-1,2,3,4-tetrahydropyrazin-1-yl}methylcarbonylamino-1-(4,5-dihydro-1,3-thiazol-2-yl)-1-oxo-3-phenylpropane]"
7,6.49,"CC(C)OC(=O)C(=O)[C@H](Cc1ccccc1)NC(=O)CN1C(=O)C(C(C)C)SC=C1c1ccccc1 (mixture of isomers) [Compound No. 2-63, Isopropyl (3S)-3-{(2RS)-2-isopropyl-3-oxo-5-phenyl-3,4-dihydro-2H-1,4-thiazin-4-yl}methylcarbonylamino-2-oxo-4-phenylbutyrate]"
8,6.55,"COc1ccc(C2=CSC(C(C)C)C(=O)N2CC(=O)N[C@@H](Cc2ccccc2)C(=O)C(=O)OC(C)C)cc1 (mixture of isomers) [Compound No. 2-65, Isopropyl (3S)-3-{(2RS)-2-isopropyl-5-(4-methoxyphenyl)-3-oxo-3,4-dihydro-2H-1,4-thiazin-4-yl}methylcarbonylamino-2-oxo-4-phenylbutyrate]"
9,6.43,"CC(C)C1C(=O)N(CC(=O)N[C@@H](Cc2ccccc2)C(=O)C2=NC(C)(C)CO2)C(c2ccccc2)=CN1C(=O)c1ccccc1 (mixture of isomers) [Compound No. 10-7, (2S)-2-{(3RS)-4-Benzoyl-3-isopropyl-2-oxo-6-phenyl-1,2,3,4-tetrahydropyrazin-1-yl}methylcarbonylamino-1-(4,4-dimethyl-4,5-dihydro-1,3-oxazol-2-yl)-1-oxo-3-phenylpropane]"
10,5.82,"CC(=O)N1C=C(c2ccccc2)N(CC(=O)NC(Cc2ccccc2)C(=O)C(F)(F)F)C(=O)C1C(C)C (racemic) [Compound No. 4-1, (3RS)-3-{(3RS)-4-Acetyl-3-isopropyl-2-oxo-6-phenyl-1,2,3,4-tetrahydropyrazin-1-yl}methylcarbonylamino-2-oxo-4-phenyl-1,1,1-trifluorobutane]"
11,6.70,"CC(C)OC(=O)C(=O)[C@H](Cc1ccccc1)NC(=O)CN1C(=O)[C@@H](C(C)C)N(C(=O)c2ccccc2)C=C1c1ccccc1 [Compound No. 2-22, Isopropyl (3S)-3-{(3R)-4-benzoyl-3-isopropyl-2-oxo-6-phenyl-1,2,3,4-tetrahydropyrazin-1-yl}methylcarbonylamino-2-oxo-4-phenylbutyrate]"

# Test system: not given
# Assay: not given
# Details: not given
row,melting point [°C],SMILES
1,110,CC(C)[C@@H]1C(=O)N(CC(=O)N[C@@H](Cc2ccccc2)C(=O)C2=NC(C)(C)CO2)C(c2ccccc2)=CN1C(=O)c1ccc[n+](CC(N)=O)c1.[Br-]
2,100 to 125,"CC(C)[C@@H]1C(=O)N(CC(=O)N[C@@H](Cc2ccccc2)C(=O)C2=NCC(C)(C)S2)C(c2ccccc2)=CN1C(=O)c1ccncc1 [Compound No. 10-10, (2S)-1-(5,5-Dimethyl-4,5-dihydro-1,3-thiazol-2-yl)-2-{(3R)-3-isopropyl-2-oxo-6-phenyl-4-(4-pyridylcarbonyl)-1,2,3,4-tetrahydropyrazin-1-yl}methylcarbonylamino-1-oxo-3-phenylpropane]"
3,135 to 150,"CC(C)[C@@H]1C(=O)N(CC(=O)N[C@@H](Cc2ccccc2)C(=O)C2=NC(C)(C)CO2)C(c2ccccc2)=CN1C(=O)c1ccc[n+](Cc2ccccc2)c1.[Br-] [Compound No. 21-3, 1-Benzyl-3-[(2R)-4-{(1S)-1-benzyl-2-(4,4-dimethyl-4,5-dihydro-1,3-oxazol-2-yl)-2-oxoethylcarbamoylmethyl}-2-isopropyl-3-oxo-5-phenyl-1,2,3,4-tetrahydro-1-pyrazinylcarbonyl]pyridinium bromide]"
4,78 to 85,"CC(C)[C@@H]1C(=O)N(CC(=O)N[C@@H](Cc2ccccc2)C(=O)C2=NC(C)(C)CO2)C(c2ccccc2)=CN1C(=O)c1cc[n+](CC(N)=O)cc1.[I-] [Compound No. 21-12, 4-{(2R)-4-[(1S)-1-Benzyl-2-(4,4-dimethyl-4,5-dihydro-1,3-oxazol-2-yl)-2-oxoethylcarbamoylmethyl]-2-isopropyl-3-oxo-5-phenyl-1,2,3,4-tetrahydro-1-pyrazinylcarbonyl}-1-(carbamoylmethyl)pyridinium iodide]"
